Test results reported in patent publication US20020155192A1, “Yeast transport isoforms” (priority 2000, published 2002).
Like-named read-outs stand apart in the source and are kept apart here.

Assays:
Odc1p = target: T1, Odc1p (Saccharomyces cerevisiae, UniProt Q03028); experiment: Effect of inhibitors and external compounds on the [14C]oxoglutarate/oxoglutarate exchange by proteoliposomes reconstituted with Odc1p; format: biochemical; conditions: for inhibition of [14C]oxoglutarate/oxoglutarate exchange (in words): Table III; for Inhibition (%) of [14C]oxoglutarate/oxoglutarate exchange: 20 mM internal oxoglutarate, 0.4 mM [14C]oxoglutarate, 45 seconds, inhibitors 4 mM, except mercurials 10 μM, carboxyatractyloside 0.1 mM, N-ethylmaleimide and α-cyanocinnamate 2 mM
T1 construct: made in house; host or cells: S. cerevisiae odc1Δodc2Δ (YPH499 background) carrying pYES2-based pODC1; purified from mitochondria on Ni-NTA agarose
T1 sequence (Q03028 1-310): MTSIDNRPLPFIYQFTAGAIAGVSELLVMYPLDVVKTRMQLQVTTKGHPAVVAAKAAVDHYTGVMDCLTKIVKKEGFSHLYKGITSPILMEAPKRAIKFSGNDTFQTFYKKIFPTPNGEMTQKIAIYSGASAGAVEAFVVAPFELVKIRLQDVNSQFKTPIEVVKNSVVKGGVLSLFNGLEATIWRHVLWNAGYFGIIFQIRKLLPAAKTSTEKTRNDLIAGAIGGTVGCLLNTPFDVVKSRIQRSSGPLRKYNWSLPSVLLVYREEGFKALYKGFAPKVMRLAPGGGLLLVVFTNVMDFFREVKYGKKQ
Description: FIG. 5. Effect of dicarboxylates and 2-oxodicarboxylates with different carbon chain length on the rate of [^14C]oxoglutarate uptake into proteoliposomes reconstituted with recombinant Odc1p. Proteoliposomes were preloaded with 20 mM oxoglutarate and reconstituted with recombinant Odc1p. Transport was initiated by the addition of 0.4 mM [^14C]oxoglutarate and terminated after 45 seconds. Oxalate, malonate, succinate, glutarate, adipate, pimelate, suberate (▪) and the corresponding 2-oxoacids (●) were added simultaneously with [1^4C]oxoglutarate at 4.0 mM concentration.
(§1) Reconstitution of the ODC proteins into liposomes—Purified ODC proteins were reconstituted by cyclic removal of the detergent with a hydrophobic column (13). The composition of the initial mixture used for reconstitution was: 200 μl of purified isoform (0.3-0.4 μg of protein), 70 μl of 10% Triton X-114, 100 μl of 10% phospholipids in the form of sonicated liposomes, 20 mM oxoglutarate (except where otherwise indicated), 10 mM Pipes (pH 7.0), 0.7 mg of cardiolipin (Sigma) and water to a final volume of 700 μl. These components were mixed thoroughly, and the mixture was recycled 13 times through an Amberlite column (Supelco) (3.0 cm×0.5 cm) preequilibrated with a buffer containing 10 mM Pipes (pH 7.0) and with the substrate at the same concentration as in the starting mixture. All operations were performed at 4° C., except the passages through Amberlite, which were carried out at room temperature.
(§2) External substrate was removed from proteoliposomes on a Sephadex G-75 column preequilibrated with buffer F (50 mM NaCl and 10 mM PIPES, pH 7.0). Transport at 25° C. was started by adding [^14C]oxoglutarate (unless otherwise indicated) to the proteoliposomes, and terminated by addition of 30 mM pyridoxal 5′-phosphate and 10 mM bathophenanthroline (the “inhibitor-stop” method (13)). In controls, inhibitors were added with the labelled substrate. The external radioactivity was removed on Sephadex G-75 and the internal radioactivity was measured. […] The initial rate of transport was calculated in mmol/min per g protein from the time course of isotope equilibration (13). Various other transport activities were also assayed by the inhibitor-stop method. For efflux measurements, the internal substrate pool of the proteoliposomes was made radioactive by carrier-mediated exchange equilibration (13) with 0.1 mM [^14C]oxoglutarate added at high specific radioactivity. After 60 min, the residual external radioactivity was removed by passing the proteoliposomes again through a column of Sephadex G-75. Efflux was started by adding unlabelled external substrate or buffer F alone and terminated by adding the inhibitors indicated above.
(§3) In addition, the ability of non-radioactive potential substrates to inhibit the oxoglutarate/oxoglutarate exchange was examined.
Proteoliposomes were preloaded internally with 20 mM oxoglutarate and transport was initiated by the addition of 0.4 mM [^14C]oxoglutarate.

Odc2p = target: T2, Odc2p (Saccharomyces cerevisiae, UniProt Q99297); experiment: Effect of inhibitors and external compounds on the [14C]oxoglutarate/oxoglutarate exchange by proteoliposomes reconstituted with Odc2p; format: biochemical; conditions: for Inhibition (%) of [14C]oxoglutarate/oxoglutarate exchange: 20 mM internal oxoglutarate, 0.4 mM [14C]oxoglutarate, 45 seconds, inhibitors 4 mM, except mercurials 10 μM, carboxyatractyloside 0.1 mM, N-ethylmaleimide and α-cyanocinnamate 2 mM; for inhibition of [14C]oxoglutarate/oxoglutarate exchange (in words): Table III
T2 construct: made in house; host or cells: S. cerevisiae odc1Δodc2Δ (YPH499 background) carrying pYES2-based pODC2; purified from mitochondria on Ni-NTA agarose
T2 sequence (Q99297 1-307): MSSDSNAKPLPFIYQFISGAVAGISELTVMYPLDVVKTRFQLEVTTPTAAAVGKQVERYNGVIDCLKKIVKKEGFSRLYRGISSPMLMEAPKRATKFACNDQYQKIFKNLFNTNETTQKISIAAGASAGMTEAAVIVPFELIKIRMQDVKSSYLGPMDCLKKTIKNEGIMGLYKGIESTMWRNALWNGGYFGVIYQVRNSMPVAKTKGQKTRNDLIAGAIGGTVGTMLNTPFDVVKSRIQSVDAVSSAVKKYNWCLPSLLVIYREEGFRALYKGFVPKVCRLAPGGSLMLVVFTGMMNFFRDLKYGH
Description: as §1, §2, §3
Proteoliposomes were preloaded internally with 20 mM oxoglutarate and transport was initiated by the addition of 0.4 mM [^14C]oxoglutarate. The incubation time was 45 seconds. Thiol reagents and α-cyanocinnamate were added 2 min before the labelled substrate; the other inhibitors and external substrates were added together with [^14C]oxoglutarate. The final concentration of the inhibitors was 4 mM, except for mercurials (10 μM), carboxyatractyloside (0.1 mM), N-ethylmaleimide and α-cyanocinnamate (2 mM).

[1] = Odc1p, added with 0.4 mM [14C]oxoglutarate, 4.0 mM in FIG. 5, partly data not shown

| Compound | effect of non-radioactive potential substrates on the rate of oxoglutarate uptake (in words) (Odc1p; [1]) | effect of non-radioactive potential substrates on the rate of oxoglutarate uptake (in words) (Odc2p; Odc2p, data not shown) | inhibition of [14C]oxoglutarate/oxoglutarate exchange (in words) (Odc1p; Odc1p) | Inhibition (%) of [14C]oxoglutarate/oxoglutarate exchange (Odc2p; Odc2p) [%] | inhibition of [14C]oxoglutarate/oxoglutarate exchange (in words) (Odc2p; Odc2p) | Inhibition (%) of [14C]oxoglutarate/oxoglutarate exchange (Odc1p; Odc1p) [%] | also measured |
| --- | --- | --- | --- | --- | --- | --- | --- |
| hydroxyglutarate |  |  |  |  |  |  | effect of non-radioactive potential substrates on the rate of oxoglutarate uptake (in words) (Odc1p): slightly less effective than glutarate; effect of non-radioactive potential substrates on the rate of oxoglutarate uptake (in words) (Odc2p): slightly less effective than glutarate |
| C[C@@H](O)[C@H](N)C(=O)O [threonine] | no effect | no effect |  |  |  |  |  |
| O=C(O)CC(O)C(=O)O (stereo not shown) [malate] |  |  |  |  |  |  | increase of the extent of inhibition of oxoglutarate uptake with respect to the corresponding dicarboxylate (Odc1p; Odc1p, C4 hydroxydicarboxylate versus C4 dicarboxylate, not shown): about 10 fold; increase of the extent of inhibition of oxoglutarate uptake with respect to the corresponding dicarboxylate (Odc2p; Odc2p, C4 hydroxydicarboxylate versus C4 dicarboxylate, not shown): about 10 fold |
| CC(=O)CCCC(=O)O [5-oxohexanoate] |  |  |  |  |  |  | effect of oxomonocarboxylates on the rate of uptake of 0.4 mM oxoglutarate (in words) (Odc1p; Odc1p, 8 mM, 20 times greater than the substrate, data not shown): did not influence; effect of oxomonocarboxylates on the rate of uptake of 0.4 mM oxoglutarate (in words) (Odc2p; Odc2p, 8 mM, 20 times greater than the substrate, data not shown): did not influence |
| C[C@H](N)C(=O)O [alanine] | no effect | no effect |  |  |  |  |  |
| N[C@@H](CO)C(=O)O [serine] | no effect | no effect |  |  |  |  |  |
| COC(CNC(=O)c1ccccc1OCC(=O)O)[CH2][Hg][OH] (stereo not shown) [Mersalyl] |  |  | inhibited strongly | 100 | inhibited strongly |  |  |
| N#C/C(=C\c1ccccc1)C(=O)O [α-Cyanocinnamate] |  |  | inhibited strongly | 80 | inhibited strongly | 86 |  |
| NC(=O)C[C@H](N)C(=O)O [asparagine] | no effect | no effect |  |  |  |  |  |
| [Cl][Hg][Cl] [HgCl2, mercuric chloride] |  |  | inhibited strongly | 98 | inhibited strongly | 100 |  |
| O=C(O)[C@@H](O)[C@H](O)C(=O)O [D-tartrate] | more efficiently than succinate | more efficiently than succinate |  |  |  |  |  |
| O=C(O)[C@H](O)[C@@H](O)C(=O)O [L-tartrate] | more efficiently than succinate | more efficiently than succinate |  |  |  |  |  |
| C=C1[C@@H]2CC[C@H]3[C@]4(C)C[C@H](O[C@@H]5O[C@H](CO)[C@@H](OS(=O)(=O)O)[C@H](OS(=O)(=O)O)[C@H]5OC(=O)CC(C)C)CC(C(=O)O)(C(=O)O)[C@H]4CC[C@]3(C2)[C@H]1O [Carboxyatractyloside] |  |  | little or no effect | 10 | little or no effect | 7 |  |
| CC(C)[C@H](N)C(=O)O [valine] | no effect | no effect |  |  |  |  |  |
| CCN1C(=O)C=CC1=O [N-Ethylmaleimide] |  |  | inhibited considerably | 43 | inhibited considerably | 65 |  |
| O=S(=O)(O)c1cc[c]([Hg][Cl])cc1 [p-Chloromercuriphenylsulfonate] |  |  | inhibited strongly | 100 | inhibited strongly | 98 |  |
| NCCCC[C@H](N)C(=O)O [lysine] | no effect | no effect |  |  |  |  |  |
| N[C@@H](Cc1c[nH]cn1)C(=O)O [histidine] | no effect | no effect |  |  |  |  |  |
| O=C(O)C(O)C(=O)O [tartronate] | completely ineffective | completely ineffective |  |  |  |  |  |
| NC(C(=O)O)C(O)C(=O)O (racemic) [DL-Threo-hydroxyaspartate] | no affect | no affect |  |  |  |  |  |
| N=C(N)NCCC[C@H](N)C(=O)O [arginine] |  |  |  |  |  |  | effect of non-radioactive potential substrates on the rate of oxoglutarate uptake (in words) (Odc1p): no effect; effect of non-radioactive potential substrates on the rate of oxoglutarate uptake (in words) (Odc2p): no effect |
| O=C(O)CC(C(=O)O)c1ccccc1 (stereo not shown) [Phenylsuccinate] |  |  | rather poorly | 22 | rather poorly | 23 |  |
| CCCCC(C(=O)O)C(=O)O [Butylmalonate] |  |  | rather poorly | 25 | rather poorly | 118 |  |
| NCC(=O)O [glycine] | no effect | no effect |  |  |  |  |  |
| O=C(O)c1cccc(C(=O)O)c1C(=O)O [1,2,3-Benzenetricarboxylate] |  |  | rather mild inhibitory effect | 37 | rather mild inhibitory effect | 41 |  |
